Measurements as given in US7390813B1, “Pyridylpiperazines and aminonicotinamides and their use as therapeutic agents” (Xenon Pharmaceuticals Inc., priority 2001, dated 2008).
Read-outs that look alike come from different tables or passages of the source.

What was measured:
[1] = molecular target: T1, stearoyl-CoA desaturase (SCD) (Mus musculus, UniProt P13516); assay: SCD mouse liver microsome assay (tritiated stearoyl-CoA desaturation); assay type: biochemical; settings: for % Remaining SCD activity compared to DMSO control, average: mouse liver microsomes 100 μg, 15 min RT preincubation, 15 min RT desaturation
T1 construct: % Remaining SCD activity compared to DMSO control in mouse liver microsome assay; from tissue; host or cells: mouse liver microsomes
T1 sequence (P13516 1-355): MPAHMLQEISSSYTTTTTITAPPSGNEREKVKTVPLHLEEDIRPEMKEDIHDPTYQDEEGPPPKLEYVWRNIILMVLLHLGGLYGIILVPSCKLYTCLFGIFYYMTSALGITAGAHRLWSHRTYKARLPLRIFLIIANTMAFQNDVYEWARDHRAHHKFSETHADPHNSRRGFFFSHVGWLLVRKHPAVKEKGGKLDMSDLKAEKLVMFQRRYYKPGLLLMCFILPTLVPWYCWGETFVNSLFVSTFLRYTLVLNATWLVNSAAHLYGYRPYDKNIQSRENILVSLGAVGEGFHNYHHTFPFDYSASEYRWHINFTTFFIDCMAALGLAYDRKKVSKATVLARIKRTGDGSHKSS
Method: The identification of compounds of the invention was readily accomplished using the SCD enzyme and microsomal assay procedure described in Brownlie et al, supra.
Briefly, mouse or human liver microsomes (induced for SCD1 expression and containing cytochrome b5 and cytochrome b5 reductase) and NADH are suspended in buffer with a test compound, and reaction is initiated by addition of 0.025 mM tritiated stearoyl-CoA. This ligand is tritiated at the C9 and C10 position only. The reaction is allowed to proceed for between 5 and 20 minutes at room temperature, whereupon it is halted by addition of acid. Activated charcoal is then added, mixed, and centrifuged to separate labeled substrate from labeled water. An aliquot of supernatant is than tested for radioactivity using liquid scintillation counting. This is taken as a measure of delta-9 desaturase activity.
The compounds and compositions of the invention were tested in mouse liver microsomes, 100 μg for 15 minutes at room temperature pre-incubation with the compound and 15 minutes at room temperature desaturation period. […] Identification numbers are the same as those indicated in FIGS. 1 and 2 showing the structures and characteristics of the compounds.
% Remaining SCD activity compared to DMSO control in mouse liver microsome assay at concentration of test compound indicated. Compounds tested in mouse liver microsomes, 100 μg, 15 min RT preincubation with compound, 15 min RT desaturation period, Large volume bench-top tube method.

[2] = tested on: stearoyl-CoA desaturase; assay: Fatty acid composition in rats after repeated dosing; assay type: in vivo; settings: 9 doses (2 per day), 30 mg/kg body weight, HCl salt
Description: A highly preferred compound of the invention has the structure of Formula I, wherein R1 is H and R2 is isopentyl, X=C, n=2, m=1 and R3=2-trifluoromethylphenyl.

[3] = Table 5, % remaining SCD activity at 10 μM, mouse microsome assay
[4] = Table 5, % remaining SCD activity at 0.1 μM, mouse microsome assay
[5] = Table 5, % remaining SCD activity at 1 μM, mouse microsome assay

Row | Compound | % Remaining SCD activity compared to DMSO control, average ([1]; 0.1 uM test compound) [%] | % Remaining SCD activity compared to DMSO control, average ([1]; 1 uM test compound) [%] | % Remaining SCD activity compared to DMSO control, average ([1]; 10 uM test compound) [%] | % Activity 10 μM [1, 3] [%] | % Activity 0.1 μM [1, 4] [%] | % Activity 1 μM [1, 5] [%] | % of the activity inhibited ([1]; 10 μM concentration of the compound) [%] | activity at 0.1 µM [1, 4] [%] | activity at 1 µM [1, 5] [%] | activity at 10 µM [1, 3] [%] | IC50 ([1]; stated in summary text, read-out: IC50 value) [nM] | IC50 ([1]; Table 5, SCD inhibition, read-out: IC50) [nM] | changes in fatty acid composition [2]
1 | Cc1ccsc1C(=O)N1CCN(c2ccc(C(=O)NCCc3cccc(Cl)c3)cn2)CC1 [Compound X18] | 86.33 | 32.64 | 3.41 | 3.41 |  |  |  |  |  |  |  |  | 
2 | CC(C)CCNC(=O)c1ccc(N2CCN(C(=O)c3ccc(Cl)cc3Cl)CC2)nc1 [Compound X14] | 38.24 | 7.44 | 1.39 | 1.4 | 38 | 7.4 |  |  |  |  |  |  | 
3 | CCCCCNC(=O)c1ccc(N2CCN(C(=O)c3ccccc3Br)CC2)nc1 [Compound X13] | 44.42 | 7.77 | 1.75 | 1.8 | 44 | 7.8 |  |  |  |  |  |  | 
4 | CC(C)CCNC(=O)c1ccc(N2CCN(C(=O)c3ccccc3Br)CC2)nc1 [Compound X02] | 25.68 | 5.49 | 1.27 | 1.3 | 26 | 5.5 |  |  |  |  |  |  | 
5 | O=C(NCCCc1ccccc1)c1ccc(N2CCN(C(=O)c3ccccc3C(F)(F)F)CC2)nc1 [Compound X03] | 26.04 | 2.17 | 0.72 | 0.7 | 26 | 2.2 | > 99 |  |  |  |  |  | 
6 | CCCCCNC(=O)c1ccc(N2CCN(C(=O)c3cc(Cl)ccc3Cl)CC2)nc1 [Compound X06] | 38.00 | 5.38 | 1.97 | 2 | 38 | 5.4 |  |  |  |  |  |  | 
7 | CC(C)CCNC(=O)c1ccc(N2CCN(C(=O)c3ccccc3C(F)(F)F)CC2)nc1 [Compound X05] | 17.09 | 3.05 | 0.81 |  |  |  |  | 17 | 3.1 | 0.8 | 32 |  | 
8 | CCCCCCNC(=O)c1ccc(N2CCN(C(=O)c3ccccc3C(F)(F)F)CC2)nc1 [Compound X15] | 44.95 | 6.46 | 1.22 | 1.2 | 45 | 6.5 |  |  |  |  |  |  | 
9 | CCCCCNC(=O)c1ccc(N2CCN(C(=O)c3ccccc3C(F)(F)F)CC2)nc1 [Compound X11] | 25.41 | 3.67 | 1.72 | 1.7 | 25 | 3.7 |  |  |  |  |  | 37 | 
10 | CC(C)CCNC(=O)c1ccc(N2CCN(C(=O)c3cccc4ccccc34)CC2)nc1 [Compound X16] | 31.35 | 7.01 | 2.06 | 2.1 | 31 | 7 |  |  |  |  |  |  | 
11 | O=C(NCCCc1ccccc1)c1ccc(N2CCN(C(=O)c3cc(Cl)ccc3Cl)CC2)nc1 [Compound X10] | 29.72 | 3.37 | 1.07 | 1.1 | 30 | 3.4 |  |  |  |  |  |  | 
12 | O=C(NCCc1ccccc1)c1ccc(N2CCN(C(=O)c3ccccc3Br)CC2)nc1 [Compound X04] | 36.54 | 5.48 | 1.29 | 1.3 | 37 | 5.5 |  |  |  |  |  |  | 
13 | Cc1ccccc1CC(=O)N1CCN(c2ccc(C(=O)NCCC(C)C)cn2)CC1 [Compound X21] | 74.82 | 33.28 | 3.94 | 3.94 |  |  |  |  |  |  |  |  | 
14 | O=C(NCCc1ccccc1)c1ccc(N2CCN(C(=O)c3cc(Cl)ccc3Cl)CC2)nc1 [Compound X12] | 29.87 | 3.91 | 1.15 | 1.2 | 30 | 3.9 |  |  |  |  |  |  | 
15 | CC(C)CCNC(=O)c1ccc(N2CCN(C(=O)c3ccccc3C(F)(F)F)CC2)nc1 |  |  |  |  |  |  |  |  |  |  |  |  | changes in fatty acid composition consistent with inhibition of SCD activity
16 | O=C(NCCc1cccc(Cl)c1)c1ccc(N2CCN(C(=O)c3ccccc3C(F)(F)F)CC2)nc1 [Compound X01] | 57.77 | 9.05 | 1.42 | 1.4 | 58 | 9.1 |  |  |  |  |  |  | 
17 | CCCCNC(=O)c1ccc(N2CCN(C(=O)c3ccccc3Br)CC2)nc1 [Compound X19] | 75.14 | 18.59 | 3.57 | 3.57 |  |  |  |  |  |  |  |  | 
18 | CCCCNC(=O)c1ccc(N2CCN(C(=O)c3ccccc3C(F)(F)F)CC2)nc1 [Compound X09] | 63.58 | 14.80 | 2.69 | 2.7 | 64 | 15 |  |  |  |  |  |  | 
19 | COc1ccc(Br)c(C(=O)N2CCN(c3ccc(C(=O)NCCCc4ccccc4)cn3)CC2)c1 [Compound X17] | 61.74 | 10.59 | 1.01 | 1.01 |  |  |  |  |  |  |  |  | 
